This is an account of results in patent US11168081B2, “Alkaloid derivative having angiogenesis inhibitory effect, and pharmaceutical composition containing same” (SEOUL NATIONAL UNIVERSITY R&DB FOUNDATION, priority 2017, dated 2021).

For data set [1], the system named is HUVECs. Kind of data set: HUVEC cell growth assay (MTT). Conditions: for IC50: Homo sapiens, HUVEC, MTT, 24 hours, in the presence of VEGF (50 ng/mL). In kind it is cell-based, human. The procedure: Human umbilical vascular endothelial cells (HUVECs) were obtained from the ATCC (Rockville, Md.) and cultured in EGM-2 (Lonza, Walkersville, Md.) supplemented with 10% FBS at 37° C. under a 5% CO2 atmosphere.
Cell growth was assessed by MTT assay. HUVECs (8×10^3 cells/well) were seeded onto a 96-well plate with EGM-2 medium supplemented with 10% FBS for 24 hours. The next day, the culture medium was removed, and the cells were then incubated with serum-free medium for 12 hours. Following serum starvation, the cells were cultured in fresh 2% FBS/EBM-2 medium containing various concentrations of the test compound for 24 hours in the presence of VEGF (50 ng/mL). After the incubation, an MTT solution was added, and the plate was incubated for additional 4 hours. The formazan product was dissolved in DMSO, and the absorbance was detected at 570 nm using a VersaMax ELISA microplate reader (Molecular Devices, Sunnyvale, Calif.).
(§1) The same experiment was carried out for sunitinib as a positive control.

The test system of data set [2] is HUVECs. Put plainly: In vitro tube formation assay. In kind it is cell-based, human. Particulars: for IC50: Homo sapiens, HUVEC, HUVECs on Matrigel, 8 hours, VEGF-induced tube formation; for Selectivity Index (SI): ratio of the IC50 for HUVEC cell growth to the IC50 for tube formation. The procedure:
Matrigel (70 μl/well) was coated onto a 96-well plate and polymerized for 30 minutes at 37° C. under a 5% CO2 atmosphere. HUVECs (1.5×10^4 cells/well) and various concentrations of the compound were seeded onto each well of the Matrigel-coated 96-well plate. The cells were then incubated for 8 hours at 37° C. under a 5% CO2 atmosphere. The formation of endothelial cell tubular structures was visualized under an inverted microscope and photographed (Olympus Optical Co. Ltd., Tokyo, Japan). The inhibition rate of tube formation was determined using the following equation. tube formation inhibition rate (%)=[1−(average tube numbersample−average tube numberVEGF(−))/(average tube numberVEGF(+)−average tube numberVEGF(−))]×100 [Equation 1]
The IC50 value was calculated using nonlinear regression analysis using TableCurve 2D v5.01 software (Systat Software Inc., Richmond, Calif., USA).
as §1
The endothelial cell tubular structure formation assay was performed in the same manner as in the Experimental Example 1.

Data set [3] deals with human umbilical vascular endothelial cell (HUVEC). Conditions: Korean Patent Application Publication No. 10-2012-0122705; cited from earlier work.

For `CCc1ccc2nc(C(c3ccc(O)c(O)c3)n3cc(CCN(C)C)nn3)sc2c1` (centres unmarked) [Compound I-1, 4-((4-(2-(dimethylamino)ethyl)-1H-1,2,3-triazol-1-yl)(6-ethylbenzo[d]thiazol-2-yl)methyl)benzene-1,2-diol], the IC50 (commonly the point on the concentration scale where inhibition reaches its midpoint) in the data set with HUVECs [1] was found to be 37.3 µM. For the same compound, in the data set with HUVECs [2], 3.04 µM corresponded to half-maximal inhibition (IC50) and the “Selectivity Index (SI)” value was 12.3.

Turning to `CCc1ccc2nc(C(c3ccc(OC)c(OC)c3)n3cc(CCN(C)C)nn3)sc2c1` (centres unmarked) [Compound I-2, 2-(1-((3,4-dimethoxyphenyl)(6-ethylbenzo[d]thiazol-2-yl)methyl)-1H-1,2,3-triazol-4-yl)-N,N-dimethylethan-1-amine], the half-maximal inhibitory concentration (IC50) was 93.5 µM in the data set with HUVECs [1] and 8.27 µM in the data set on HUVECs [2]. Further, the “Selectivity Index (SI)” value in the data set on HUVECs [2] is 11.3.

As to `CCCNCCc1cn(C(c2ccc(OC)c(OC)c2)c2nc3ccc(CC)cc3s2)nn1` (centres unmarked) [Compound I-3, N-(2-(1-((3,4-dimethoxyphenyl)(6-ethylbenzo[d]thiazol-2-yl)methyl)-1H-1,2,3-triazol-4-yl)ethyl)propan-1-amine], the results for the IC50 with HUVECs [1] and in the data set with HUVECs [2] were 38.6 µM and 1.39 µM, respectively. Moreover, the “Selectivity Index (SI)” value in the data set with HUVECs [2] is listed as 27.8.

For `CCc1ccc2nc(C(c3ccc(OC)c(OC)c3)n3cc(CCNC4CCCC4)nn3)sc2c1` (centres unmarked) [Compound I-4, N-(2-(1-((3,4-dimethoxyphenyl)(6-ethylbenzo[d]thiazol-2-yl)methyl)-1H-1,2,3-triazol-4-yl)ethyl)cyclopentanamine], the figures for the IC50 in the data set with HUVECs [1] and with HUVECs [2] were 19.4 µM and 1.02 µM, respectively. Further, the “Selectivity Index (SI)” value in the data set on HUVECs [2] is given as 19.0.

For the compound `CCc1ccc2nc(C(c3ccc(OC)c(OC)c3)n3cc(CCN4CCCC4)nn3)sc2c1` (centres unmarked) [Compound I-5, 2-((3,4-dimethoxyphenyl)(4-(2-(pyrrolidin-1-yl)ethyl)-1H-1,2,3-triazol-1-yl)methyl)-6-ethylbenzo[d]thiazole], the concentration for half-maximal inhibition (IC50) is 70.3 µM with HUVECs [1] and 2.84 µM in the data set on HUVECs [2]. The “Selectivity Index (SI)” value with HUVECs [2] was 24.8.

Regarding `CCc1ccc2nc(C(c3ccc(OC)c(OC)c3)n3cc(CCN4CCOCC4)nn3)sc2c1` (centres unmarked) [Compound I-6, 4-(2-(1-((3,4-dimethoxyphenyl)(6-ethylbenzo[d]thiazol-2-yl)methyl)-1H-1,2,3-triazol-4-yl)ethyl)morpholine], the half-maximal inhibitory concentration (IC50) is above 100 µM in the data set with HUVECs [1] and 3.93 µM with HUVECs [2].

For `CCc1ccc2cc(C(c3ccc(O)c(O)c3)n3cc(CCN(C)C)nn3)oc2c1` (centres unmarked) [Compound I-8, 4-((4-(2-(dimethylamino)ethyl)-1H-1,2,3-triazol-1-yl)(6-ethylbenzofuran-2-yl)methyl)benzene-1,2-diol], in the data set on HUVECs [1], the IC50 was found to be 22 µM. For the same compound, in the data set with HUVECs [2], half-maximal inhibition (IC50) required 6.1 µM and the “Selectivity Index (SI)” value stood at 3.61.

`CCc1ccc2nc(C(c3ccc(O)c(O)c3)n3cc(CCN(C)C)nn3)oc2c1` (centres unmarked) [Compound I-9, 4-((4-(2-(dimethylamino)ethyl)-1H-1,2,3-triazol-1-yl)(6-ethylbenzo[d]oxazol-2-yl)methyl)benzene-1,2-diol]: the values for the IC50 in the data set on HUVECs [1] and with HUVECs [2] were above 100 µM and above 20 µM, respectively.

Regarding `CCc1ccc2nc(C(c3ccc(OC)c(OC)c3)n3cnc(CCN(C)C)c3)sc2c1` (centres unmarked) [Compound I-10, 2-(1-((3,4-dimethoxyphenyl)(6-ethylbenzo[d]thiazol-2-yl)methyl)-1H-imidazol-4-yl)-N,N-dimethylethan-1-amine], the 50% inhibitory concentration (IC50) is above 100 µM with HUVECs [1] and 4.87 µM in the data set with HUVECs [2].

For the compound `CCCN(CCC)CCc1cn(C(c2ccc(OC)c(OC)c2)c2nc3ccc(CC)cc3s2)cn1` (centres unmarked) [Compound I-11, N-(2-(1-((3,4-dimethoxyphenyl)(6-ethylbenzo[d]thiazol-2-yl)methyl)-1H-imidazol-4-yl)ethyl)-N-propylpropan-1-amine], the IC50 was found to be 38.6 µM in the data set with HUVECs [1] and 1.82 µM in the data set with HUVECs [2]. Also, the “Selectivity Index (SI)” value with HUVECs [2] was determined as 21.18.

For the compound `CCc1ccc2nc(C(c3ccc(OC)c(OC)c3)n3cnc(CCN4CCCCC4)c3)sc2c1` (centres unmarked) [Compound I-12, 2-((3,4-dimethoxyphenyl)(4-(2-(piperidin-1-yl)ethyl)-1H-imidazol-1-yl)methyl)-6-ethylbenzo[d]thiazole], the figures for the IC50 in the data set on HUVECs [1] and in the data set with HUVECs [2] were 75.6 µM and 3.4 µM, respectively. In addition, the “Selectivity Index (SI)” value with HUVECs [2] is reported as 22.23.

As to `CCc1ccc2nc(C(c3ccc(OC)c(OC)c3)n3cnc(CCNC4CCCC4)c3)sc2c1` (centres unmarked) [Compound I-13, N-(2-(1-((3,4-dimethoxyphenyl)(6-ethylbenzo[d]thiazol-2-yl)methyl)-1H-imidazol-4-yl)ethyl)cyclopentanamine], in the data set on HUVECs [1], the IC50 amounted to 30.6 µM. Moreover, in the data set with HUVECs [2], the IC50 worked out at 1.56 µM and the “Selectivity Index (SI)” value is 19.63.

As to `CCc1ccc2nc(C(c3ccc(OC)c(OC)c3)n3cnc(CCN4CCCC4)c3)sc2c1` (centres unmarked) [Compound I-14, 2-((3,4-dimethoxyphenyl)(4-(2-(pyrrolidin-1-yl)ethyl)-1H-imidazol-1-yl)methyl)-6-ethylbenzo[d]thiazole], the IC50 worked out at 95.7 µM in the data set on HUVECs [1] and 1.53 µM in the data set on HUVECs [2]. Further, the “Selectivity Index (SI)” value in the data set with HUVECs [2] was 62.56.

As to `CCc1ccc2nc(C(c3ccc(OC)c(OC)c3)n3cc(CN4CCCCC4)nn3)sc2c1` (centres unmarked) [Compound I-15, 2-((3,4-dimethoxyphenyl)(4-(piperidin-1-ylmethyl)-1H-1,2,3-triazol-1-yl)methyl)-6-ethylbenzo[d]thiazole], the IC50 in the data set with HUVECs [1] was above 100 µM. Further, in the data set with HUVECs [2], the 50% inhibitory concentration (IC50) turned out to be 2.46 µM and the “Selectivity Index (SI)” value was above 40.65.

Regarding `CCc1ccc2nc(C(c3ccc(OC)c(OC)c3)n3cc(CCCN4CCCCC4)nn3)sc2c1` (centres unmarked) [Compound I-16, 2-((3,4-dimethoxyphenyl)(4-(3-(piperidin-1-yl)propyl)-1H-1,2,3-triazol-1-yl)methyl)-6-ethylbenzo[d]thiazole], the IC50 turned out to be 30.5 µM in the data set on HUVECs [1] and 2.28 µM with HUVECs [2]. Moreover, in the data set with HUVECs [2], the “Selectivity Index (SI)” value was found to be 13.38.

As for `CCN(CC)CCNC(=O)c1c(C)[nH]c(/C=C2\C(=O)Nc3ccc(F)cc32)c1C` [Sunitinib, sunitinib, reference compound], the IC50 in the data set on HUVECs [1] turned out to be 9.92 µM; in the data set on HUVECs [2], 0.546 µM. The “higher inhibitory effect on the cell growth of HUVECs” value with HUVECs [1] (sunitinib relative to compound (I-7)) came to 4.8 fold. In addition, in the data set on HUVECs [2], the “Selectivity Index (SI)” value was determined as 18.2.

Turning to `CN(C)CCc1cn(C(c2ccc(O)c(O)c2)C2Oc3ccc(C=COS(=O)(=O)[O-])cc3O2)cn1.[Na+]` (centres unmarked) [wondonin, Wondonin], the “inhibition of human umbilical vascular endothelial cell (HUVEC)” value in data set [3] is reported as “does not inhibit”.
